Data: patent US4670460A, “Inhibiting lipoxygenase with pyrazolone derivatives” (Bayer Aktiengesellschaft, priority 1983, dated 1987)

Experiments:
lipoxygenase [1] = molecular target: T1, lipoxygenase (Homo sapiens, UniProt P09917); assay: Inhibition of LTB4 biosynthesis (lipoxygenase-inhibiting action) in human PMN leucocytes stimulated with ionophor A 23187; assay type: cell-based; settings: 0.25 h; for inhibition at 10 µg/mL: concentration 10^-5 g/ml; for inhibition at 1 µg/mL: concentration 10^-6 g/ml
T1 construct: endogenous in cells; host or cells: human PMN leucocytes isolated from heparinized blood
T1 sequence (P09917 1-674): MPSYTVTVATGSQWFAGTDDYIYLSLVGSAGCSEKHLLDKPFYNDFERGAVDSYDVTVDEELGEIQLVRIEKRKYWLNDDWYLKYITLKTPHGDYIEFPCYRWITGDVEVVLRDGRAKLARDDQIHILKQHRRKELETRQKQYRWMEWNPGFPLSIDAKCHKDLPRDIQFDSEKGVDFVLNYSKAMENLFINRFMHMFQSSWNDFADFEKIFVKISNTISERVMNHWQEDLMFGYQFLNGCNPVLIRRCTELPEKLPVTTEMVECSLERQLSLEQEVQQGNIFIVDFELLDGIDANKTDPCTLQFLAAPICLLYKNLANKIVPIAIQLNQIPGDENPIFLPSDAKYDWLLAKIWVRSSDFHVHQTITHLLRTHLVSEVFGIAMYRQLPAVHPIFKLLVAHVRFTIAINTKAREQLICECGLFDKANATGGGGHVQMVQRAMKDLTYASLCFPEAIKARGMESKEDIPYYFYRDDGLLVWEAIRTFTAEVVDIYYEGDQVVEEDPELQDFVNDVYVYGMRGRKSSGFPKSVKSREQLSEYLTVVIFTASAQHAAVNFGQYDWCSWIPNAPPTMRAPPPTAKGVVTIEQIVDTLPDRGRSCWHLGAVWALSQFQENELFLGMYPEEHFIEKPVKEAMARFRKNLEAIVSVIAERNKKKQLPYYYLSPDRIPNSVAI
Procedure: The human PMN leucocytes (>95%) used in the present example were obtained from heparinized complete blood by dextran sedimentation and subsequent density gradient separation (Ficoll-Paque) (compare A. Boyum, Scand. J. Immunol., 5, Suppl. 5, 9, 1976).
2×10^7 cells/ml were suspended in Dulbecco phosphate buffer containing Ca^2+ and were incubated with radioactively labelled arachidonic acid and the calcium ionophor A 23187 in the presence or absence of lipoxygenase inhibitor. After 15 minutes, the labelled lipoxygenase products were extracted from the acidified incubation medium and were separated by thin layer chromatography using a mobile phase mixture suitable for the leukotrienes (5-HETE-LTB4) (compare B. Jakschik et al., Biochem. Biophys. Res. Commun., 102, 624, 1981).
The distribution of the activity amongst the various metabolites was measured by a thin layer scanner. It is a measure of the lipoxygenase-inhibiting action of a test substance at a certain concentration.
The lipoxygenase metabolites were also additionally determined independently by means of high pressure liquid chromatography. This method enables the endogenous arachidonic acid metabolism to be studied with the aid of UV detection of the leukotrienes. In this method, the cells were treated as described above, with the exception that no radioactively labelled arachidonic acid was added exogenously. The high pressure liquid chromatography was carried out on Lichrosorb RP-18 (5 μm) columns. The mobile phase was methanol/water/glacial acetic acid 69/31/0.01. The flow rate was 1 ml/minute. Leukotriene B4 was determined at 280 nm and the HETE derivatives were determined at 232 nm, in each case by means of UV absorption.

leucocytes = assay: Leucocyte stickiness, hamster cheek pouch venule; assay type: in vivo, Syrian golden hamsters
Procedure: The number of leucocytes which pass a certain section of a vessel serves as a simple model for measuring the stickiness of leucocytes (Bray, M. A. et al., Prostaglandins 22, 213 (1981)). The number of leucocytes counted will be greater, the lower the stickiness of the cells.
The pyrazolone derivatives described below were investigated in this model.
Male Syrian golden hamsters (80-100 g) were anaesthetized with Nembutal (i.p.; 60 mg/kg). After insertion of a PE 10 catheter into the a. femoralis, the animal was laid on a Duling dissecting platform (MVR 5, 423 (1973)) and the right cheek pouch was withdrawn by inserting a Q-Tip. It was carefully drawn into the envisaged part of the platform, stretched and fixed.
From the start of the dissection, 5 ml/minute of Superfusat flowedover the prepared cheek pouch. The temperature of the solution was 36° C. While treating the vessels with care, the upper layer tissue was separated longitudinally and folded back to the side. Under about 200-fold magnification, an area of about 1 cm^2 of connective tissue was carefully exposed. The animal was placed on the object stand of a microscope, together with the dissecting platform. A thermocouple was inserted into the left cheek pouch. The body temperature of the animal was thus monitored and kept at 36±0.3° C. with the aid of an IR lamp (250 watt).
The leucocyte stickiness was measured at about 500-fold magnification. A venule (30-40 μm .phi.) was selected in the exposed area. The number of leucocytes per unit time (minutes) which migrate past a certain section of this vessel were counted.
Intra-arterial administration of the pyrazolone derivatives in 1% strength aqueous Tylose suspension led to the following results: […]

[2] = Antithrombotic action (prophylaxis of thromboses); assay type: in vivo; settings: dose increased 100 times in comparison with nafazatrom
[3] = system: 15-hydroxyprostaglandin dehydrogenase; settings: Wong and McGiff 1982; cited from earlier work
lipoxygenase [4] = settings: Busse et al. 1982; cited from earlier work
[5] = system: endogenous prostacyclin (PGI2) from the vascular endothelium; settings: Vermylen 1979, Chamone 1981, McIntyre and Salzman 1981; cited from earlier work

SMILES | inhibition at 10 µg/mL (lipoxygenase [1]) | inhibition at 1 µg/mL (lipoxygenase [1]) | also measured
Cc1cc(OC(=O)c2ccc3ccccc3c2)n(C(C)c2ccc(Cl)c(Cl)c2)n1 (stereo not drawn) | 46% | – | –
O=C1CC(c2ccccc2)=NN1CCCc1ccccc1 | 100% | 81% | –
CC1=NN(CCOc2ccccc2-c2ccccc2)C(=O)C1 [Compound 4] | – | – | Duration of action (leucocytes; dose 0.1 mg/kg intra-arterial): 40 min; Increase in Leucocyte number (%) (leucocytes; dose 0.1 mg/kg intra-arterial): 35%
O=C1CC(Cc2ccccc2)=NN1CCOc1ccc2ccccc2c1 [Compound 3-benzyl] | – | – | Effect in the prophylaxis of thromboses [2]: no effect can be detected
CC1=NN(C(C)c2ccc(Cl)c(Cl)c2)C(=O)C1Cc1ccccc1 (stereo not drawn) | 100% | – | –
Cc1cc(OC(=O)c2ccc(Cl)cc2)n(C(C)c2ccc(Cl)c(Cl)c2)n1 (stereo not drawn) | 80% | – | –
CCC1C(=O)N(CCOc2ccc3c(Br)cccc3c2)N=C1C (stereo not drawn) [Compound 5] | – | – | Duration of action (leucocytes; dose 1 mg/kg intra-arterial): 30 to 50 min; Increase in Leucocyte number (%) (leucocytes; dose 1 mg/kg intra-arterial): 200%
CC1=NN(CCOc2ccc3ccccc3c2)C(=O)C1 [nafazatrom, 3-methyl-1-[2-(2-naphthyloxy)-ethyl]-2-pyrazolin-5-one] | – | – | Blockade of 15-hydroxyprostaglandin dehydrogenase, the PGI2-degrading enzyme [3]: blocks; Inhibition of lipoxygenase activity (lipoxygenase [4]): inhibits lipoxygenase activity; Stimulation of endogenous prostacyclin (PGI2) from the vascular endothelium [5]: can act as a stimulator
CCCC1=NN(CCOc2ccc3ccccc3c2)C(=O)C1 [Compound 3-n-propyl] | – | – | Effect in the prophylaxis of thromboses [2]: no effect can be detected
CC1=NN(CCOc2ccc3ccccc3c2)C(=O)C1C (stereo not drawn) [3,4-dimethyl derivative] | – | – | Effect in the prophylaxis of thromboses [2]: no effect can be detected
CC1=NN(CCc2cccc3ccccc23)C(=O)C1 [Compound 6] | – | – | Duration of action (leucocytes; dose 1 mg/kg intra-arterial): 20 to 30 min; Increase in Leucocyte number (%) (leucocytes; dose 1 mg/kg intra-arterial): 30%
CC(C)C1=NN(CCOc2ccc3ccccc3c2)C(=O)C1 [Compound 3-isopropyl] | – | – | Effect in the prophylaxis of thromboses [2]: no effect can be detected
O=C1CC(C2CCCCC2)=NN1CCCc1ccccc1 | 100% | 71% | –

Further lines, with some results ahead:

inhibition at 10 µg/mL (lipoxygenase [1]) | inhibition at 1 µg/mL (lipoxygenase [1]) | SMILES | also measured
100% | 68% | CCCCC1C(=O)N(CCOc2ccc3c(Br)cccc3c2)N=C1C (stereo not drawn) | –
100% | 62% | CC1=NN(CCOc2cccc3ccccc23)C(=O)C1 | –
100% | 100% | CC(C)CC1=NN(CCOc2ccc3ccccc3c2)C(=O)C1 | –
100% | 58% | CC1=NN(CCc2cccc3ccccc23)C(=O)C1 [drawing 28] | –
100% | 58% | CC1=NN(CCOc2ccc3ccccc3c2)C(=O)C1 [drawing 34, reference compound] | –
80% | – | O=C1CC(CO)=NN1CCOc1ccc2ccccc2c1 | –
93% | 40% | COCC1=NN(CCOc2ccc3ccccc3c2)C(=O)C1 | –
100% | 93% | CCCCCCC1C(=O)N(CCOc2ccc3ccccc3c2)N=C1C (stereo not drawn) | –
100% | 100% | CCC1=NN(CCOc2ccc3c(Br)cccc3c2)C(=O)C1C (stereo not drawn) | –
100% | 83% | CC1=NN(CCOc2ccc3ccccc3c2)C(=O)C1C (stereo not drawn) [drawing 22] | –
82% | 36% | CC(=O)OCC1=NN(CCOc2ccc3ccccc3c2)C(=O)C1 | –
50% | – | CC1=NN(CCOc2ccc3ccccc3c2)C(=O)C1C1C(=O)N(CCOc2ccc3ccccc3c2)N=C1C (stereo not drawn) | –
100% | 75% | CC1=NN(CCOc2ccccc2-c2ccccc2)C(=O)C1 [drawing 18] | –
100% | 100% | CCC1C(=O)N(CCOc2ccc3c(Br)cccc3c2)N=C1C (stereo not drawn) [drawing 20] | –
100% | 43% | CC1=NN(CCOc2ccc(Cl)c(C)c2)C(=O)C1 | –
